Assay results published in patent US20220186188A1, “Method for Obtaining Pancreatic Progenitor Cells and Pancreatic Islet Beta Cells By Means of Differentiation of Human Pluripotent Stem Cells” (Asia Regenerative Medicine, Ltd., priority 2019, published 2022).

Key:
Assay type in all cases: cell-based
[1] = test system: pancreatic progenitor cells differentiated from human embryonic stem cells; experiment: Flow cytometry detection of PDX1 in the pancreatic progenitor cell stage (human embryonic stem cells); conditions: 2 μM inhibitor in pancreatic progenitor cell medium, 5 days, compared with control group without WNT inhibitor
Method: a pancreatic progenitor cell medium was prepared, the medium in step 1) was replaced with the pancreatic progenitor cell medium, and the cells were cultured in a carbon dioxide incubator at 37 degrees Celsius for 5 days, during which the medium was replaced every day, wherein the composition of the pancreatic progenitor cell medium was: with an MCDB131 medium as a basic medium, and the following components at the working concentrations were further included: 0.5% of bovine serum albumin (BSA), 1.5 g/L of sodium bicarbonate, 1×glutamine (GlutaMAX), 10 mM glucose, […], 1×insulin-transferrin-selenium-ethanolamine additive (ITS-X), 50 ng/ml of fibroblast growth factor 7 (KGF), 0.5 μM SANT1 (with smo as an inhibitor target), 100 nM retinoic acid (TTNPB), 500 nM phorbol 12,13-dibutyrate (PDBu), 2 μM ALK inhibitor (K02288), and 2 μM WNT signaling pathway inhibitor XAV-939 (not added in a control group), with the concentrations all being final concentrations. […]

[2] = test system: pancreatic progenitor cells and pancreatic islet β cells differentiated from human embryonic stem cells; experiment: Immunofluorescence detection of PDX1 and PDX1/INS proteins (human embryonic stem cells)
Method: (§1) a pancreatic progenitor cell medium was prepared, the medium in step 1) was replaced with the pancreatic progenitor cell medium, and the cells were cultured in a carbon dioxide incubator at 37 degrees Celsius for 5 days, during which the medium was replaced every day, wherein the composition of the pancreatic progenitor cell medium was: with an MCDB131 medium as a basic medium, and the following components at the working concentrations were further included: 0.5% of bovine serum albumin (BSA), 1.5 g/L of sodium bicarbonate, 1×glutamine (GlutaMAX), 10 mM glucose, 0.25 M vitamin C, 1×insulin-transferrin-selenium-ethanolamine additive (ITS-X), 50 ng/ml of fibroblast growth factor 7 (KGF), 0.5 μM SANT1 (with smo as an inhibitor target), 100 nM retinoic acid (TTNPB), 500 nM phorbol 12,13-dibutyrate (PDBu), 2 μM ALK inhibitor (K02288), and 2 μM WNT signaling pathway inhibitor XAV-939 (not added in a control group), with the concentrations all being final concentrations.
(§2) b. pancreatic islet β cell medium 2 was prepared, the pancreatic islet β cell medium 1 in above-mentioned step a was replaced with the pancreatic islet β cell medium 2, and the cells were cultured in a carbon dioxide incubator at 37 degrees Celsius for 5 days, during which the medium was replaced every day, wherein the composition of the pancreatic islet β cell medium 1 was: with an MCDB131 medium as a basic medium, and the following components at the working concentrations were further included: 20 mM glucose, 2% of bovine serum albumin (BSA), 1.5 g/L of sodium bicarbonate, 1×glutamine (GlutaMAX), 0.05 mM vitamin C, 1×insulin-transferrin-selenium-ethanolamine additive (ITS-X), 2 μM ALK inhibitor (K02288), 1 μM triiodothyronine (T3), 10 μM YO-01027 (Notch signaling pathway inhibitor), and 10 μM zinc sulfate, with the concentrations all being final concentrations; and the composition of the pancreatic islet β cell medium 2 was: with an MCDB131 medium as a basic medium, and the following components at the working concentrations were further included: 20 mM glucose, 2% of bovine serum albumin (BSA), 1.5 g/L of sodium bicarbonate, 1×glutamine (GlutaMAX), 0.05 mM vitamin C, 1×insulin-transferrin-selenium-ethanolamine additive (ITS-X), 1 μM triiodothyronine (T3), 10 μM Repsox (ALK5 inhibitor), 10 μM vitamin E, 10 μg/ml of heparin sodium, 2 μM R428 (Axl inhibitor), 10 μM zinc sulfate, and 10 mM N-acetyl-L-cysteine (N-cys), with the concentrations all being final concentrations.
Cells in a culture plate were washed three times with a phosphate buffered saline (PBS), 3 minutes each time; the cells were fixed with 4% paraformaldehyde at room temperature for 20 minutes, and washed three times with PBS, 3 minutes each time; a blocking solution was prepared in advance (by adding Triton at a final concentration of 0.3% to 9 ml of DPBS, adding donkey serum at a final concentration of 10%, and uniformly mixing); the above-prepared blocking solution was used for blocking and perforation at room temperature for 2 hours; the blocking solution was soaked up, a working concentration of primary antibody prepared with the blocking solution was then added, and the product was left to stand at room temperature for 30 minutes and then placed in a refrigerator at 4° C. overnight; the next day, the product was washed three times with PBS, 3 minutes each time; a fluorescent secondary antibody of donkey serum was added and incubation was carried out at room temperature for 2 hours; in the same way, the product was washed three times with PBS, 3 minutes each time; the product was incubated with a working solution of the nuclear dye DAPI at room temperature for 10 minutes, and washed three times with PBS, 3 minutes each time; then a fluorescence microscope was used for observation and data were collected. […]

[3] = test system: pancreatic progenitor cells and pancreatic islet β cells differentiated from human embryonic stem cells; experiment: Real-time fluorescence quantitative PCR of PDX1, NKX6-1 and INS mRNA (human embryonic stem cells); conditions: qPCR
Method: as §1, §2
Cells cultured in a 24-well plate were collected, and washed twice with 500 μl of DPBS at first, then covered with 200 μl of chymotrypsin-trypsin (Trypsin), and placed at 37° C. for 5 minutes of digestion. Whether the cells float in pieces was observed, and the digestion was terminated using 500 μl of DMEM/F12 medium, then the product was centrifuged at 1000 rpm for 3 minutes, the supernatant was removed, and cell pellets were collected and added to a new RNase-free centrifuge tube. […]

[4] = 2 μM inhibitor in pancreatic progenitor cell stage
[5] = 2 μM inhibitor in pancreatic progenitor cell stage, GAPDH reference

Structure (SMILES): O=C(Nc1cccc2cccnc12)c1ccc(N2C(=O)[C@@H]3[C@H](C2=O)[C@@H]2C=C[C@H]3C2)cc1 [IWR-1]
- PDX1-positive pancreatic progenitor cells (flow cytometry) [1]: significantly increased
- number of insulin INS-positive and PDX1 co-stained pancreatic islet β cells in the mature pancreatic islet β cell stage ([2]; 2 μM inhibitor added in pancreatic progenitor cell stage, immunofluorescence): significantly increased
- PDX1-positive pancreatic progenitor cells (immunofluorescence) [2, 4]: significantly increased
- cell growth (total cell number by DAPI) [2, 4]: did not affect the cell growth
- transcription level of the insulin gene INS in the mature pancreatic islet β cell stage ([3]; 2 μM inhibitor added in pancreatic progenitor cell stage): greatly increased
- relative expression of mRNA of NKX6-1 in pancreatic progenitor cells [3, 5]: significantly increased
- relative expression of mRNA of PDX1 in pancreatic progenitor cells [3, 5]: significantly increased
